Laboratory results: PubChem BioAssay AID2060497 (Molecular Pharmacology Branch, DTP, NCI, 2025)

Tested on: 317291-083-R-J1-PDC complex spheroids, viability
Test: Anticancer human tumor 317291-083-R-J1-PDC patient-derived soft tissue sarcoma cell line growth inhibition [GQUAD]
Conditions: for IC50: curve of first compound; for viability, T/C: stronger effect = lower value
How it was run: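 Viability of tumor cells grown as complex spheroids with endothelial and stromal cells, exposed to drug combinations. Top concentration at or near clinical Cmax (else 10 microM), diluted in half-log increments.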
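Further: spheroids exposed to compounds for one week before readout.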
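Wherever viability, T/C is given: percent viability relative to DMSO vehicle wells taken as 100%.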

Work on `C=CC(=O)N1CCN(c2nc(=O)n(-c3c(C)ccnc3C(C)C)c3nc(-c4c(O)cccc4F)c(F)cc23)C(C)C1` (configuration not stated) + CN(C)c1ccc(Nc2c3ccc(NC(=O)CCN4CCCC4)cc3nc3cc(NC(=O)CCN4CCCC4)ccc23)cc1 yielded an IC50 (second compound 0.0316 µM) of over 10000 nM, an IC50 (second compound 0.1 µM) of over 10000 nM and an IC50 (second compound 0.316 µM) of over 10000 nM. It also gave an IC50 (second compound 1 µM) of 1420 nM, an IC50 (second compound 3.16 µM) of under 31.6 nM and an IC50 (second compound 10 µM) of under 31.6 nM. It also gave a viability, T/C (second compound 0.0316 µM, first compound 0.0316 µM) of 105%, a viability, T/C (second compound 0.0316 µM, first compound 0.1 µM) of 90.8% and a viability, T/C (second compound 0.0316 µM, first compound 0.316 µM) of 114%. It also gave a viability, T/C (second compound 0.0316 µM, first compound 1 µM) of 113%, a viability, T/C (second compound 0.0316 µM, first compound 3.16 µM) of 98.4% and a viability, T/C (second compound 0.0316 µM, first compound 10 µM) of 65.2%. For the same molecule, the viability, T/C (second compound 0.1 µM, first compound 0.0316 µM) was 115%, the viability, T/C (second compound 0.1 µM, first compound 0.1 µM) was 100% and the viability, T/C (second compound 0.1 µM, first compound 0.316 µM) was 99.1%. It also gave a viability, T/C (second compound 0.1 µM, first compound 1 µM) of 107%, a viability, T/C (second compound 0.1 µM, first compound 3.16 µM) of 91.8% and a viability, T/C (second compound 0.1 µM, first compound 10 µM) of 70.8%. It also gave a viability, T/C (second compound 0.316 µM, first compound 0.0316 µM) of 81.5%, a viability, T/C (second compound 0.316 µM, first compound 0.1 µM) of 69.9% and a viability, T/C (second compound 0.316 µM, first compound 0.316 µM) of 73.2%. The viability, T/C (second compound 0.316 µM, first compound 1 µM) was 91.2%, the viability, T/C (second compound 0.316 µM, first compound 3.16 µM) was 82.9% and the viability, T/C (second compound 0.316 µM, first compound 10 µM) was 51.4%. It also gave a viability, T/C (second compound 1 µM, first compound 0.0316 µM) of 57%, a viability, T/C (second compound 1 µM, first compound 0.1 µM) of 44.1% and a viability, T/C (second compound 1 µM, first compound 0.316 µM) of 52.3%. The viability, T/C (second compound 1 µM, first compound 1 µM) was 81.2%, the viability, T/C (second compound 1 µM, first compound 3.16 µM) was 30.2% and the viability, T/C (second compound 1 µM, first compound 10 µM) was 22.5%. For the same molecule, the viability, T/C (second compound 3.16 µM, first compound 0.0316 µM) was 32.1%, the viability, T/C (second compound 3.16 µM, first compound 0.1 µM) was 22% and the viability, T/C (second compound 3.16 µM, first compound 0.316 µM) was 29.2%. For the same molecule, the viability, T/C (second compound 3.16 µM, first compound 1 µM) was 51.6%, the viability, T/C (second compound 3.16 µM, first compound 3.16 µM) was 42.4% and the viability, T/C (second compound 3.16 µM, first compound 10 µM) was 21.1%. The viability, T/C (second compound 10 µM, first compound 0.0316 µM) was 13.5%, the viability, T/C (second compound 10 µM, first compound 0.1 µM) was 15.1% and the viability, T/C (second compound 10 µM, first compound 0.316 µM) was 8.38%. It also gave a viability, T/C (second compound 10 µM, first compound 1 µM) of 8.02%, a viability, T/C (second compound 10 µM, first compound 3.16 µM) of 6.86% and a viability, T/C (second compound 10 µM, first compound 10 µM) of 23.1%.
